# Data reported in US20240252476A1, “LPA1 ANTAGONISTS FOR TREATING INTERSTITIAL LUNG DISEASE” (Bristol-Myers Squibb Company, priority 2022, published 2024).
# Key:
# [1] = Effect of single and multiple ascending doses of Compound B on blood pressure; assay type: in vivo
# Excerpt: and is described in U.S. Patent Application Publication No. 2010/0311799. Single ascending dose of Compound B caused a drop in blood pressure starting ˜1.25 hr post dose (FIG. 5).
# patients with IPF = conditions: cited from earlier work
# patients with PPF = conditions: 52-week study period; cited from earlier work
# [2] = Phase 1 multiple ascending dose study (Part B), blood pressure in healthy participants; assay type: in vivo, human; conditions: MAD, 14-day treatment period
# Description: (§1) The study was performed in 3 parts in 112 healthy male and female participants, including 24 Japanese participants. Female participants were to be not of childbearing potential. The present study was designed to evaluate the safety and tolerability, PK, and exploratory PD of an oral suspension of Compound A. Parts A and B (Cohort B1 only) enrolled healthy participants and was conducted at a site in The Netherlands and Part B (Cohort B2 to B5) enrolled healthy non-Japanese participants and was conducted at a site in the United Kingdom (UK). Part C enrolled healthy Japanese participants and was conducted at the same site in the UK.
# Part B was a MAD study in a planned number of 6 sequential dose escalation cohorts (10 mg QD, 30 mg QD, 30 mg BID, 60 mg BID, 125 mg BID, and ≤250 mg BID) of 8 healthy participants (6 active+2 placebo) each, under fasted conditions. However, Cohort B6 (≤250 mg BID) was cancelled because sufficient safety and PK data had been obtained at doses up to 125 mg BID. […]
# Physical examinations, vital sign measurements (including orthostasis testing in Cohort A6, Cohort B3 to B5, and C1 to C3 at selected time points), 12-lead electrocardiogram (ECG), and clinical laboratory evaluations were performed at selected times throughout the study. […] Participants were closely monitored for adverse events (AEs). […]
# [3] = Phase 1 multiple ascending dose study (Part C), blood pressure in healthy Japanese participants; assay type: in vivo, human
# Description: as §1
# Part C was a MAD study in 3 sequential dose escalation cohorts (30 mg BID, 60 mg BID, and 90 mg BID) of 8 healthy Japanese participants (6 active+2 placebo) each. Eligible participants in Cohorts C1 to C3 received study drug (Compound A or placebo) administered orally for 14 days.
# Physical examinations, vital sign measurements (including orthostasis testing in Cohort A6, Cohort B3 to B5, and C1 to C3 at selected time points), 12-lead electrocardiogram (ECG), and clinical laboratory evaluations were performed at selected times throughout the study. In addition, Holter monitoring was performed for the first 24 hours post dose on Day 1 in Part A (not in FE/pH cohort), and also for the first 24 hours post dose on Day 1 and Day 14 in Parts B and C. Participants were closely monitored for adverse events (AEs). Blood samples were collected for up to 14 days (follow-up visit) after (last) study drug administration for PK analysis. In addition, blood and urine were collected for exploratory biomarker assessments and for biobanking of samples for potential analyses. Urine was collected for potential PK analysis for up to 96 hours after a single dose of Compound A or placebo was administered in the SAD part, and for up to 24 hours after the first (morning) dose of study drug on Day 1 and for up to 24 hours after the last (morning) dose of study drug on Day 14 in the MAD parts.
# participants with IPF = assay: Phase 2 study, IPF cohort: efficacy (ppFVC, FVC); assay type: in vivo, human; conditions: for Rate of change in ppFVC over 26 weeks: 60-mg arm
# Description: A total of 278 participants with IPF were randomized and 276 participants were treated as of theinal analyses data cut-off (4 Aug. 2022). Male and female participants ≥40 years of age with IPF and percent predicted forced vital capacity (ppFVC) ≥40% and percent predicted DLCO (ppDLCO) ≥25%; diagnosed within 7 years of screening; having a centrally-read chest HRCT obtained at screening that was consistent with UIP or probable UIP, or having a lung biopsy consistent with UIP were eligible to enter the study. The mean baseline ppFVC for all subjects was 76.5%. In the primary IPF cohort, participants were randomized (1:1:1) to receive 30 mg or 60 mg Compound A or placebo (PBO) twice daily for 26 weeks. Participants were stratified by standard of care (SoC) IPF therapy (pirfenidone versus nintedanib versus none) and region (Japan versus Rest of World) at randomization.
# The primary objective of the study was to determine the rate of change in ppFVC from baseline to Week 26. The primary objective was evaluated with a two estimand framework to handle the intercurrent event of dose reduction to 10 mg BID or matching PBO when pre-specified low BP criteria is met. The primary estimand is adopted to estimate treatment effect when dose reduction is implemented. The supplementary estimand is adopted to estimate the effect of treatment without dose reduction.
# Analysis Strategy: The primary estimand was to evaluate the efficacy of Compound A at 30 mg or 60 mg twice daily, compared to PBO in IPF participants who met the enrollment criteria, with or without use of SoC. The rate of decline in ppFVC (%) from baseline to Week 26 was compared using the difference between each dose and PBO as a population level summary regardless of dose reduction or treatment discontinuation for any reason (treatment policy strategy).
# Analysis Strategy: The supplementary estimand for the primary objective is to evaluate the efficacy of Compound A at 30 mg or 60 mg twice daily without dose reduction, compared to the PBO in IPF subjects who met the enrollment criteria, with or without use of SoC. The rate of decline in ppFVC (%) from baseline to Week 26 has been compared using the difference between each dose and PBO as a population level summary regardless of treatment discontinuation for any reason (treatment policy strategy). In the event of dose reduction, data collected after dose reduction will not be considered relevant to the treatment effect of interest and therefore, will be treated as missing (while-on-treatment strategy).
# participants with PPF = assay: Phase 2 study, PPF cohort: efficacy (ppFVC, FVC); assay type: in vivo, human; conditions: for Relative reduction: 60 mg v placebo
# Description: (§2) A total of 123 participants with PPF were randomized. Participants (age ≥21 years) were randomized (1:1:1) to receive 30 mg or 60 mg Compound A or PBO twice daily for 26 weeks. […] Immunosuppressive medications (mycophenolate mofetil, mycophenolic acid, azathioprine and/or tacrolimus) were permitted only if dosing is stable for ≥6 months prior to screening. If receiving antifibrotic agents pirfenidone or nintedanib, patients had to receive a stable dosage for ≥3 months prior to screening and during the screening period; if not receiving pirfenidone or nintedanib, patients had to be naive to both drugs or not have received either 4 weeks prior to Day 1. A total of 47 (38.2%) subjects were receiving antifibrotic treatment (with or without immunosuppression therapy). Of those subjects, 34 were being treated with nintedanib and 13 with pirfenidone. Participants were stratified by usual interstitial pneumonia (UIP) pattern (presence versus absence) and background therapy (antifibrotics +/−ILD-targeted immunosuppression versus ILD-targeted immunosuppression alone versus none).UIP pattern was present in 52% of subjects and unclassifiable ILD was he most common disease categorization.
# The study was not powered to detect statistical significance (no formal testing). No target effect size was defined in the study design. There were two estimand approaches for analysis:
# Treatment Policy: Effect of treatment with dose reduction as part of treatment regimen.
# While-On Treatment: Effect of treatment without dose reduction.
# The main efficacy endpoint, rate of FVC decline (in […]) from baseline to wk-26 in the PPF cohort, was estimated using a linear mixed-effects model utilizing all FVC timepoints. It was analyzed under a primary estimand (utilizing all data, treatment policy strategy), and under supplementary estimand (utilizing all data up to the point of dose reduction, while-on-treatment strategy). Analysis was performed in the overall population as well as in sub-groups by 1) background anti-fibrotic treatment or not 2) UIP radiographic pattern (presence or not). The mean baseline ppFVC was 66.700 for the PPF cohort.
# [4] = Phase 2 study, PPF cohort: safety and blood pressure reduction criteria; assay type: in vivo, human
# Description: as §2
# Patient is experiencing any of the following, confirmed by retest within 15 minutes: • Seated systolic blood pressure <85 mmHg • Seated diastolic blood pressure <55 mmHg • Orthostatic hypotension
# Patient is experiencing symptoms that, in the investigator's opinion, could be associated with a reduction in blood pressure and is also experiencing at least one of the following, confirmed by retest within 15 minutes: • Seated systolic blood pressure <100 mmHg or seated diastolic blood pressure <60 mmHg • Decrease of seated systolic blood pressure of ≥20 mmHg from the previous visit or decrease of seated diastolic blood pressure of ≥10 mmHg from the previous visit • Orthostatic hypotension • Orthostatic tachycardia
smiles,measurement,setting,value
"Cc1noc(-c2ccc(-c3ccc(C4(C(=O)O)CC4)cc3)cc2)c1NC(=O)O[C@H](C)c1ccccc1 [Compound B, sodium (R)-1-(4′-(3-methyl-4-(((1-phenylethoxy)carbonyl)amino)isoxazol-5-yl)-[1,1′-biphenyl]-4-yl)cyclopropane-1-carboxylate]",Normalization of blood pressure,[1]; multiple days of dosing (FIG. 6),~3 days
same,Start of drop in blood pressure post dose,[1]; single ascending dose (FIG. 5),~1.25 h
COC(=O)c1ccc2c(c1)NC(=O)/C2=C(\Nc1ccc(N(C)C(=O)CN2CCN(C)CC2)cc1)c1ccccc1 [nintedanib],Decline in lung function,patients with IPF,significantly reduce the decline in lung function
same,Progression of lung fibrosis vs placebo (annual rate of decline in FVC),patients with PPF,slower progression of lung fibrosis than those who received placebo
"CCCN(C)C(=O)OCc1c(-c2ccc(O[C@H]3CCC[C@H](C(=O)O)C3)c(C)n2)nnn1C [Compound A, (1S,3S)-3-((2-methyl-6-(1-methyl-5-(((methyl(propyl)carbamoyl)-oxy)methyl)-1H-1,2,3-triazol-4-yl)pyridin-3-yl)oxy)cyclohexane-1-carboxylic acid]",Magnitude of BP reductions with repeated dosing,[2],no clear changes in the magnitude of BP reductions with repeated dosing
same,"DBP, Baseline",[3]; Japanese MAD 30 mg BID (C1),8.8 ± 5.12 mmHg
same,"DBP, Reduction",[3]; Japanese MAD 30 mg BID (C1),72.2 ± 3.87 mmHg
same,"DBP, Baseline",[3]; Japanese MAD 60 mg BID (C2),8.2 ± 10.40 mmHg
same,"DBP, Reduction",[3]; Japanese MAD 60 mg BID (C2),73.8 ± 6.18 mmHg
same,"DBP, Baseline",[3]; Japanese MAD 90 mg BID,8.0 ± 8.22 mmHg
same,"DBP, Reduction",[3]; Japanese MAD 90 mg BID,70.7 ± 7.58 mmHg
same,Dose dependence of BP reduction,[3]; Japanese MAD cohorts,no clear Compound A dose-dependent BP reduction trend
same,Treatment response vs PBO (rate of decline of ppFVC and FVC),"participants with IPF; 60 mg BID, Week 26, overall population",favorable treatment responses
same,Relative treatment benefit vs PBO (ppFVC),"participants with IPF; 60 mg BID, primary estimand, not on background SoC",113%
same,Relative treatment benefit vs PBO (ppFVC),"participants with IPF; 60 mg BID, primary estimand, on background SoC",39%
same,Relative treatment benefit vs PBO (ppFVC),"participants with IPF; 60 mg BID, supplementary estimand, not on background SoC",123%
same,Relative treatment benefit vs PBO (ppFVC),"participants with IPF; 60 mg BID, supplementary estimand, on background SoC",44%
same,Rate of change in ppFVC over 26 weeks,participants with IPF; treatment policy strategy,−1.2%
same,Rate of change in ppFVC over 26 weeks,participants with IPF; while-on-treatment strategy,−1.1%
same,"Treatment difference in rate of change in ppFVC, 60-mg arm vs placebo",participants with IPF; treatment policy strategy,1.4%
same,"Treatment difference in rate of change in ppFVC, 60-mg arm vs placebo",participants with IPF; while-on-treatment strategy,1.8%
same,Relative reduction,participants with PPF; Anti-fibrotic subgroup,75%
same,Relative reduction,participants with PPF; No antifibrotic subgroup,63%
same,Relative reduction,participants with PPF; Non UIP subgroup,84%
same,Relative reduction,participants with PPF; UIP subgroup,54%
same,Relative reduction,participants with PPF; overall,69%
same,Rate of change in ppFVC over 26 weeks,"participants with PPF; 30-mg arm, treatment policy strategy",−2.7%
same,Rate of change in ppFVC over 26 weeks,"participants with PPF; 30-mg arm, while-on-treatment strategy",−2.5%
same,Rate of change in ppFVC over 26 weeks,"participants with PPF; 60-mg arm, treatment policy strategy",−1.1%
same,Rate of change in ppFVC over 26 weeks,"participants with PPF; 60-mg arm, while-on-treatment strategy",−1.3%
same,Treatment difference 60 mg v placebo in rate of decline in ppFVC,"participants with PPF; Non UIP subgroup, baseline to Week 26",3.80
same,"Treatment difference in rate of change in ppFVC, 60-mg vs placebo",participants with PPF; treatment policy strategy,3.2%
same,"Treatment difference in rate of change in ppFVC, 60-mg vs placebo",participants with PPF; while-on-treatment strategy,2.9%
same,"Low BP thresholds (""events"")",[4]; 30 mg,30%
same,Deaths due to TEAEs,[4]; 30 mg (n = 40),0 no.
same,Dizziness,[4]; 30 mg (n = 40),0 no.
same,Hypertension,[4]; 30 mg (n = 40),0 no.
same,Deaths due to TEAEs,[4]; 60 mg (n = 42),0 no.
same,Discontinuations due to TEAEs,[4]; 60 mg (n = 42),0 no.
same,Dyspnea,[4]; 60 mg (n = 42),0 no.
same,Rash,[4]; 60 mg (n = 42),0 no.
same,Vomiting,[4]; 60 mg (n = 42),0 no.
Cc1ccc(=O)n(-c2ccccc2)c1 [pirfenidone],Decline in lung function,patients with IPF,significantly reduce the decline in lung function
